The record followed here is PMC12784406, “IscS Kinetics in Native Mass Spectrometry Buffers Reveal Key Physiochemical Properties that Influence Enzyme Activity” (Journal of the American Society for Mass Spectrometry, 2025).

In the test the target is T1, IscS (Escherichia coli, UniProt P0A6B7).
T1 construct: pET vector, expressed in E. coli BL21(DE3), HisTrap Ni-NTA and Sephacryl S-300 purified; homodimer
The test can be described thus: methylene blue sulfide detection assay, […] nm, anaerobic. It is filed as biochemical. The following applies: 50 mM Tris/150 mM NaCl, pH 8.5, 37 °C, 4 mM DTT; IscS 0.5 uM, without IscU; L-cysteine varied.

T1 sequence (P0A6B7 whole entry): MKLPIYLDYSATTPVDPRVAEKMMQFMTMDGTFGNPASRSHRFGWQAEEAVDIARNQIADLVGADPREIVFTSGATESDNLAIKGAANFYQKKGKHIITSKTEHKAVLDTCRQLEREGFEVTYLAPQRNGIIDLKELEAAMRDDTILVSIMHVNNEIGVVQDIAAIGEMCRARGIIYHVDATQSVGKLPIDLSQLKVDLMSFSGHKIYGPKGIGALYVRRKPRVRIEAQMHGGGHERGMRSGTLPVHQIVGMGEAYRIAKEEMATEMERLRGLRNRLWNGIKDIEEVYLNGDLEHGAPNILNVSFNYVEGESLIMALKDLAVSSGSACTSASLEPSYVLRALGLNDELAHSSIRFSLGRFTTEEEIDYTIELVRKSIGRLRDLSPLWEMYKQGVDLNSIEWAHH

For the compound `N[C@@H](CS)C(=O)O` [L-cysteine], the “methylene blue sulfide detection assay, 670 nm, anaerobic” value was “Sulfide production was quantitated at different L-cysteine concentrations to determine the k cat values”.
